Experimental data from publication PMC11274883, “Anticancer Effect of Pt^[sequence], Pt^II5MESS, Pt^II56MESS and Their Platinum(IV)-Dihydroxy Derivatives against Triple-Negative Breast Cancer and Cisplatin-Resistant Colorectal Cancer” (Cancers, 2024).

System: MDA−MB−231 cells
Assay: Cellular uptake of Pt by ICP-MS
Format: cell-based
Conditions: for Intracellular Concentration: MDA−MB−231, 3 µM; for Intracellular/extracellular ratio: MDA−MB−231, extracellular 3 µM
Method: A final concentration of 10^6 cells/well of MDA−MB−231 and HT29 cells were seeded in 6-well plates and incubated overnight to adhere. The cells were then treated with a final concentration of 3 µM of either Pt^II or Pt^IV complexes. After 0, 0.5, 1, 3, 6, 12, 24 or 30 h, the medium was removed, and the cells were washed three times with cold PBS and allowed to dry. Then, 400 µL of 69% HNO3 (Baseline grade nitric acid with PPB level reported impurities, Seastar Chemicals, Sidney, BC, Canada) was added to each well for 90 min to ensure complete digestion. […] Iridium 193 (^193Ir) was mixed online and introduced into the ICP-MS to check uptake efficiency and matrix interference. All ICP-MS parameters are described in Table S2 and elaborated in Method S3. The results represent an average of three different experiments run in triplicate (±SEM) and expressed as nmol/10^6 cells or µM/cell. Quantification of the cellular uptake of Pt was based on external standards (Certified Standard from Sigma-Aldrich, VIC, Australia) containing Internal standard Ir.
Method S3. Cellular Uptake of Platinum(II) and (IV) complexes
A final concentration of 10^6 cells/well of MDA−MB−231 and HT29 cells were seeded in 6-well plates and incubated overnight to adhere. The cells were then treated with a final concentration of 3 µM of either PtII or PtIV complexes. After 0, 0.5, 1, 3, 6, 12, 24 or 30 h, the medium was removed, and the cells were washed three times with cold PBS and allowed to dry. Then, 400 µL of 69% HNO3 (Baseline grade nitric acid with Instrument Quality Grade Nitric acid with ppb level reported impurities, Seastar Chemicals, Sidney, Canada) was added to each well for 90 mins to ensure complete digestion. The digests were then moved to trace -metal free 15 mL centrifuge tubes […]
concentration of 3.5-4%. Iridium 193 (193Ir), selected as internal standard, has similar first ionisation potential and mass to Platinum 195 (195Pt). A concentration of 50 ppb 193Ir in 2% HNO3 solution was chosen for the Perkin Elmer NexION® Inductively Coupled Plasma Mass Spectrometer (ICP-MS) as it produced a steady state signal intensity of 600-800K counts per second. Mixing and injection of sample and internal standard solution was carried out using an ESI 7 port Valve system (Elemental Scientific, USA). A high-quality Solvent Flex 2 stop pump with 0.38 mm ID tubing was used in conjunction with the ICP-MS’s Peristaltic pump set at 20 […]
standard both, at 0.25 mL/min) being 0.5 mL/min. The ICP-MS was tuned to high sensitivity settings to facilitate detection of low Pt concentrations in samples. This was done by adjusting the nebuliser gas flow between […] to achieve maximum Indium 115 intensity whilst maintaining an acceptable average oxide and doubly charged ratio of 1.64-2.24% and 1.17-1.69% respectively. The analysis method was set to peak hopping mode with a dwell time of […] and 45 sweeps through the mass spectrum per sample read. […]
peak integration time of 4500 milliseconds and enabled the collection of numerous data points for peak integration thereby increasing accuracy. The ICP-MS was tuned daily, and its performance optimised to a set of suppliers recommended settings. Analysis was only carried out when optimal oxide and doubly charged ratios with high ionic sensitivity was achieved. All ICP-MS parameters are described in Table S2. The results represent an average of three different experiments run in triplicates (± SEM) and expressed as nmol/106 cells or µM/cell. Quantification of the cellular uptake of Pt was based on external standards (Certified Standard from Sigma-Aldrich NSW, Australia) containing Internal standard Ir. […]

Row | SMILES | Intracellular Concentration (0 h) [nmol/10^6 cells] | Intracellular Concentration (0.5 h) [nmol/10^6 cells] | Intracellular Concentration (1 h) [nmol/10^6 cells] | Intracellular Concentration (3 h) [nmol/10^6 cells] | Intracellular Concentration (6 h) [nmol/10^6 cells] | Intracellular Concentration (12 h) [nmol/10^6 cells] | Intracellular Concentration (24 h) [nmol/10^6 cells] | Intracellular Concentration (30 h) [nmol/10^6 cells] | Intracellular/extracellular ratio (0 h) | Intracellular/extracellular ratio (0.5 h) | Intracellular/extracellular ratio (1 h) | Intracellular/extracellular ratio (3 h) | Intracellular/extracellular ratio (6 h) | Intracellular/extracellular ratio (12 h) | Intracellular/extracellular ratio (24 h) | Intracellular/extracellular ratio (30 h) | intracellular/extracellular ratio relative to the maximum ratio of cisplatin (MDA−MB−231, 30 h) [fold] | Intracellular/extracellular ratio (30 h, listed as 56MESS) | Intracellular/extracellular ratio (30 h, listed as PtII56MESS) | drug's concentration per cell (per MDA−MB−231 cell, cell volume 1.7 pL, starting concentration 3 µM)
1 | N.N.[Cl][Pt][Cl] [Cisplatin, cisplatin] | 0.56 | 0.15 | 0.14 | 0.12 | 0.18 | 0.19 | 0.24 | 1.29 | – | – | – | – | – | – | – | – | – | – | – | –
2 | Cc1cc2cccnc2c2ncccc12.N[C@H]1CCCC[C@@H]1N.O=[N+]([O-])[O-].O=[N+]([O-])[O-].[Pt+2] [Pt^II5MESS, [Pt(5-methyl-1,10-phenanthroline)(1S,2S-diaminocyclohexane)](NO3)2] | 0.37 | 0.44 | 0.39 | 0.98 | 1.25 | 4.82 | 5.64 | 7.63 | 57.65 | 69.63 | 61.30 | 154.59 | 196.09 | 757.65 | 885.63 | 1199.77 | – | – | – | –
3 | Cc1c(C)c2cccnc2c2ncccc12.N[C@H]1CCCC[C@@H]1N.O=[N+]([O-])[O-].O=[N+]([O-])[O-].[Pt+2] [Pt^II56MESS, [Pt(5,6-dimethyl-1,10-phenanthroline)(1S,2S-diaminocyclohexane)](NO3)2] | 0.68 | 0.58 | 0.78 | 1.24 | 1.88 | 4.80 | 5.38 | 11.24 | 107.16 | 92.36 | 122.42 | 195.59 | 296.93 | 754.52 | 845.27 | 1765.95 ± 526.75 | 8.7 | around 1766 | 1765.95 | about 5298 µM
4 | Cc1cc2cccnc2c2ncccc12.N[C@H]1CCCC[C@@H]1N.O=[N+]([O-])[O-].O=[N+]([O-])[O-].[OH][Pt+2][OH] [Pt^IV5MESS(OH)2, [Pt(5-methyl-1,10-phenanthroline)(1S,2S-diaminocyclohexane)(dihydroxy)](NO3)2] | 0.16 | 0.22 | 0.17 | 0.25 | 0.29 | 1.19 | 1.31 | 2.37 | 26.14 | 35.23 | 27.69 | 40.45 | 46.47 | 186.97 | 205.97 | 371.97 | – | – | – | –
5 | Cc1c(C)c2cccnc2c2ncccc12.N[C@H]1CCCC[C@@H]1N.O=[N+]([O-])[O-].O=[N+]([O-])[O-].[OH][Pt+2][OH] [Pt^IV56MESS(OH)2, [Pt(5,6-dimethyl-1,10-phenanthroline)(1S,2S-diaminocyclohexane)(dihydroxy)](NO3)2] | 0.14 | 0.11 | 0.05 | 0.25 | 0.30 | 1.16 | 2.74 | 4.19 | – | 50.71 | 26.14 | 117.57 | 142.93 | 548.82 | 1293.81 | – | – | – | – | –
6 | N[C@H]1CCCC[C@@H]1N.O=[N+]([O-])[O-].O=[N+]([O-])[O-].[OH-].[OH-].[Pt+4].c1cnc2c(c1)ccc1cccnc12 [[Pt(1,10-phenanthroline)(1S,2S-diaminocyclohexane)(dihydroxy)](NO3)2] | 0.13 | 0.13 | 0.223 | 0.16 | 0.25 | 0.63 | 0.78 | 1.29 | 21.21 | 20.07 | 35.47 | 26.14 | 38.82 | 98.56 | 123.87 | 203.38 | – | – | – | –
7 | N[C@H]1CCCC[C@@H]1N.O=[N+]([O-])[O-].O=[N+]([O-])[O-].[Pt+2].c1cnc2c(c1)ccc1cccnc12 [[Pt(1,10-phenanthroline)(1S,2S-diaminocyclohexane)](NO3)2] | 0.40 | 0.46 | 0.80 | 0.81 | 1.03 | 2.59 | 3.01 | 4.79 | 63.45 | 72.01 | 126.21 | 127.55 | 161.09 | 407.32 | 473.33 | 752.93 | – | – | – | –
